{
  "source": "patent US11628172B2",
  "about": "“Methods of treating chronic lymphocytic leukemia using 2-(2,6-dioxopiperidin-3-yl)-4-((2-fluoro-4-((3-morpholinoazetidin-1-yl)methyl)benzyl)amino)isoindoline-1,3-dione” (Celgene Corporation, priority 2019, dated 2023)",
  "key": {"[1]": {"test_system": "EHEB CLL cell line", "assay": "Cell proliferation and viability assay (384-well flow cytometry, Annexin V/DRAQ7), EHEB", "format": "cell-based", "settings": "120 hours", "procedure": "(§1) The following are examples of cell-based assays that can be used to determine the anti-proliferative activity and apoptotic effect of compounds described herein using exemplary CLL cell lines (Table 3). The in vitro growth inhibitory activity of Compound 1 described herein was evaluated using a 384-well flow cytometry assay.\n(§2) The cell lines were plated under the conditions shown in Table 3 in 384-well flat bottom plates and incubated with increasing concentrations of compound ranging from 0.00015 to 10 μM or dimethyl sulfoxide (DMSO) control. The final concentration of DMSO was 0.1% (v/v). Following the addition of Compound 1 or DMSO and incubation for 120 hours, cell number and cell death were analyzed by flow cytometry (Attune®, Thermo Fisher) using Annexin V and the live-cell impermeant DNA dye, DRAQ7. […]\n(§3) Flow cytometry data analysis was then performed using the Flow Jo_v10 software to determine the number of viable cells (Annexin V and DRAQ7 double negative staining cells) and percentage of apoptotic cells (Annexin V positive cells) for each condition. […] The IC50 (50% inhibitory concentration) and Emax (maximum efficacy achieved) values were then calculated by performing nonlinear regression curve fitting using log (inhibitor) vs. normalized response—variable slope analysis on GraphPad Prism 7.03. […]"}, "[2]": {"test_system": "WA-C3-CD5+ CLL cell line", "assay": "Cell proliferation and viability assay (384-well flow cytometry, Annexin V/DRAQ7), WA-C3-CD5+", "format": "cell-based", "settings": "120 hours", "procedure": "as §1, §2, §3"}, "[3]": {"test_system": "WA-OSEL CLL cell line", "assay": "Cell proliferation and viability assay (384-well flow cytometry, Annexin V/DRAQ7), WA-OSEL", "format": "cell-based", "settings": "120 hours", "procedure": "as §1, §2, §3"}, "[4]": {"test_system": "PGA1 CLL cell line", "assay": "Cell proliferation and viability assay (384-well flow cytometry, Annexin V/DRAQ7), PGA1", "format": "cell-based", "settings": "120 hours", "procedure": "as §1, §2, §3"}, "[5]": {"test_system": "HG3 CLL cell line", "assay": "Cell proliferation and viability assay (384-well flow cytometry, Annexin V/DRAQ7), HG3", "format": "cell-based", "settings": "120 hours", "procedure": "as §1, §2, §3"}, "[6]": {"test_system": "I83-E95 CLL cell line", "assay": "Cell proliferation and viability assay (384-well flow cytometry, Annexin V/DRAQ7), I83-E95", "format": "cell-based", "settings": "120 hours", "procedure": "as §1, §2, §3"}, "[7]": {"test_system": "CII CLL cell line", "assay": "Cell proliferation and viability assay (384-well flow cytometry, Annexin V/DRAQ7), CII", "format": "cell-based", "settings": "120 hours", "procedure": "as §1, §2, §3"}, "[8]": {"test_system": "Mec2 CLL cell line", "assay": "Cell proliferation and viability assay (384-well flow cytometry, Annexin V/DRAQ7), Mec2", "format": "cell-based", "settings": "120 hours", "procedure": "as §1, §2, §3"}, "[9]": {"test_system": "Mec1 CLL cell line", "assay": "Cell proliferation and viability assay (384-well flow cytometry, Annexin V/DRAQ7), Mec1", "format": "cell-based", "settings": "120 hours", "procedure": "as §1, §2, §3"}, "[10]": {"test_system": "primary CLL cells from patient-derived blood (CD5+CD19+ tumor cells)", "assay": "Compound 1 in combination with obinutuzumab in B-cell CLL patient cells (ex vivo co-culture, flow cytometry, Caspase3)", "format": "cell-based, human", "settings": "single agent (Cpd1 DRC with DMSO, or obinutuzumab alone), 144 h, apoptosis (Caspase 3), DMSO baseline subtracted", "procedure": "Obinutuzumab (GA101) is a humanized, glycoengineered type 2 antibody targeted against CD20. […] The effect of treatment with Compound 1 in combination with obinutuzumab on the proliferation and survival of CLL B cells was assessed utilizing an ex vivo model where primary CLL cells from patient-derived blood were stimulated to proliferate with 10% fetal bovine serum (FBS), 5 ng/mL recombinant human interleukine-4 (rh IL-4), 10 ng/mL recombinant human interleukine-10 (rh IL-10) and co-cultured with fibroblast expressing surface CD154 (CD40L) in a 96 well plate format.\nPeripheral blood mononuclear cells (PBMCs) from CLL patients (Table 7) containing 52%-86% of CD5^+CD19^+ tumor cells were cultured at a density of 0.06-0.1×10^6 cells/well on a monolayer of CD154-expressing fibroblasts at a density of 0.09×10^6 cells/well in 96-well plates in RPMI 1640 medium supplemented with 10% FBS, 5 ng/mL rh IL-4 and 10 ng/mL rh IL-10. The cells were treated with vehicle control (0.1% DMSO) or increasing concentrations of Compound 1 ranging from 0.0001 to 1 μM and GA101 at concentrations ranging from 8 ng/mL to 5 ug/mL across all the different concentrations of Compound 1. After 144 h of treatment with both the agents, flow cytometric analysis was used to determine the number of tumor cells that were viable or apoptotic.\nThe tumor cell count was assessed by staining the patient PBMCs in each condition with tumor cell surface markers CD5 & CD19 along with Live/Dead fixable dye to exclude the dead cells and followed by intracellular staining for Caspase3 antibody to identify the apoptotic cells and was measured by flow cytometry (Attune NxT, Thermo Fisher). The live tumor cell count for each condition was calculated by normalizing to the precision count beads added to each sample.\nThe live tumor cell count was then normalized to the DMSO control (considered as 100% viable) to calculate the percentage of viable cells remaining after treatment. The normalized percentage of tumor cells was then represented as a heat map using Graph Pad Prism 8.0.0 to indicate the degree of tumor toxicity for each of the combinations (FIG. 1). Based on the data shown in FIG. 1, synergy/additivity calculations were performed using the HSA and Bliss Independence Model.\nFor apoptosis analysis, the percentage of apoptosis combining both “early” (Caspase 3 positive and Live-Dead fixable dye negative) and “late” apoptosis (Caspase 3 and Live-Dead fixable dye positive) cell gates subtracting the baseline DMSO value was graphed using GraphPad Prism 8.0.0.0. The Ymax (maximal percentage of apoptosis achieved) values from apoptosis curves were calculated by performing a nonlinear regression curve fitting using log(agonist) vs. normalized response—Variable slope analysis and identifying the maximum value on GraphPad Prism 8.0.0 (Table 8)."}},
  "data": [
    {"smiles": "O=C1CC[C@H](N2C(=O)c3cccc(NCc4ccc(CN5CC(N6CCOCC6)C5)cc4F)c3C2=O)C(=O)N1", "note": "[Compound 1, (S)-2-(2,6-dioxopiperidin-3-yl)-4-((2-fluoro-4-((3-morpholinoazetidin-1-yl)methyl)benzyl)amino)isoindoline-1,3-dione]", "values": [
      {"measurement": "% Viable Cells Emax (percentage of tumor cells remaining)", "setting": "[1]", "result": 28.68, "unit": "%"},
      {"measurement": "% Viable Cells Emax (percentage of tumor cells remaining)", "setting": "[2]", "result": 44.2, "unit": "%"},
      {"measurement": "% Viable Cells Emax (percentage of tumor cells remaining)", "setting": "[3]", "result": 54.42, "unit": "%"},
      {"measurement": "% Viable Cells Emax (percentage of tumor cells remaining)", "setting": "[4]", "result": 69.21, "unit": "%"},
      {"measurement": "% Viable Cells Emax (percentage of tumor cells remaining)", "setting": "[5]", "result": 59.58, "unit": "%"},
      {"measurement": "% Viable Cells Emax (percentage of tumor cells remaining)", "setting": "[6]", "result": 21.6, "unit": "%"},
      {"measurement": "% Viable Cells Emax (percentage of tumor cells remaining)", "setting": "[7]", "result": 78.23, "unit": "%"},
      {"measurement": "% Viable Cells Emax (percentage of tumor cells remaining)", "setting": "[8]", "result": 25.55, "unit": "%"},
      {"measurement": "% Viable Cells Emax (percentage of tumor cells remaining)", "setting": "[9]", "result": 83.45, "unit": "%"},
      {"measurement": "Ymax of Pt 11 (%)", "setting": "[10]; Pt 11", "result": 18.81, "unit": "%"},
      {"measurement": "Ymax of Pt 12 (%)", "setting": "[10]; Pt 12", "result": 19.11, "unit": "%"},
      {"measurement": "Ymax of Pt 13 (%)", "setting": "[10]; Pt 13", "result": 29.40, "unit": "%"},
      {"measurement": "Ymax of Pt 14 (%)", "setting": "[10]; Pt 14", "result": 24.11, "unit": "%"}
    ]}
  ]
}
